# Experimental data reported in patent US10016382B2, “Method for decreasing skeletal muscle damage and/or oxidative stress in mammals” (LONZA INC., priority 2014, dated 2018).
# Test system: creatine kinase
# Test: Serum creatine kinase, Example 2 part one
# Format: in vivo, dog
# Conditions: for Creatine Kinase: serum
# Description: Twenty-four hours after test dogs ran the last 15 mile endurance run, serum samples were taken to evaluate biomarkers for muscle damage and antioxidant status. Blood samples were taken 1) just prior to the beginning of the study; 2) 1 day prior to running the final 15 mile run on the 14th week; 3) 1 hour immediately following the 15 mile run; and 4) 24 hours following the final 15 mile run. After a blood sample was drawn, it was allowed to clot for 30 minutes at 25° C. before being centrifuged for 15 minutes at 2000 g at 4° C. Serum was aliquoted into 0.65 mL microcentrifuge tubes and stored at −80° C. until being assayed at the end of the study for creatine kinase, canine myoglobin, thiobarbituric acid reactive substances (TBARS), and total antioxidant capacity (TAC) using the commercially available kits described in Example 1.
smiles,measurement,setting,value
C[N+](C)(C)C[C@H](O)CC(=O)[O-] [L-carnitine],CK increase from pre-run values,"Ex.2 part one, 250 mg/d, 1 hour post-endurance run",10.81 units
same,"CK values, serum","Ex.2 part one, 250 mg/d, 1 hour post-run",26.39 mU/mL
same,"CK values, serum","Ex.2 part one, 250 mg/d, 24 hour post-run",23.06 mU/mL
same,Creatine Kinase,"FEMALES, Baseline",26.44 ± 3.08 mU · mL
same,Creatine Kinase,"FEMALES, Post-Run 1 Hr",26.8 ± 1.36 mU · mL
same,Creatine Kinase,"FEMALES, Post-Run 24 Hr",21.71 ± 0.79 mU · mL
same,Creatine Kinase,"FEMALES, Pre-Run",17.14 ± 1.96 mU · mL
same,Creatine Kinase,"MALES, Baseline",20.81 ± 2.98 mU/mL
same,Creatine Kinase,"MALES, Post-Run 1 Hr",25.98 ± 1.39 mU/mL
same,Creatine Kinase,"MALES, Post-Run 24 Hr",24.4 ± 1.53 mU/mL
same,Creatine Kinase,"MALES, Pre-Run",14.02 ± 1.98 mU/mL
same,Creatine Kinase,"Whole Groups, Baseline",23.63 ± 2.17 mU/mL
same,Creatine Kinase,"Whole Groups, Post-Run 1 Hr, Post-Run 1 Hr",26.39 ± 0.96 mU/mL
same,Creatine Kinase,"Whole Groups, Post-Run 24 Hr, Post-Run 24 Hr",23.06 ± 0.88 mU/mL
same,Creatine Kinase,"Whole Groups, Pre-Run",15.58 ± 1.4 mU/mL
